This is an account of results in patent publication US20150250882A1, “Fatty Acid Acylated Amino Acids for Growth Hormone Delivery” (Novo Nordisk Health Care AG, priority 2012, published 2015).

For one series, the system named is HT29-MTX (E12) cells. Kind of series: Transepithelial transport of GH compounds across E12 cell monolayers (Papp). As to conditions: for effect on permeation / trans-epithelia transport of the growth hormone compounds (in words): GH-A1 and GH-A2; for effect on GH A1 transport (in words): based on fold increase relative to GH A1 alone; for effect on the transportation of GH A2 (in words): fold increase relative to GH A2 alone; for Fold increase (Papp of GH A2 + FA-aa relative to GH A2 alone): GH-A2, same procedure: 0.5 mM FA-aa, transport buffer pH 7.4. The series is classed as in vitro ADME. Here is the method:
HT29-MTX (E12) cells (Pharm Res. 2001; 18(8):1138-45 and Pharm Res. 2007; 24(7):1346-56) were grown in Dulbecco's Modified Eagle Medium supplemented with 10% foetal bovine serum (FBS), 1% penicillin/streptomycin, 1% L-glutamine and 1% non-essential amino acids. For the transport assay, E12 cells were seeded onto tissue culture treated polycarbonate filters in 12-well Transwell® plates (1.13 cm2, 0.4 μm pore size) at a density of 10^5 cells per well. Cells were cultured at 37° C. in an atmosphere of 5% CO2 and the culture media was exchange every second day. Transport experiments were performed after 14-18 days in culture.
The amount of GH compound transported from the donor chamber (apical side) to the receiver chamber (basolateral side) was measured.
Before the experiment, the E12 cells are equilibrated for 60 min with transport buffer on both sides of the epithelium. Buffer is then removed and the experiment initiated by adding a test solution to the donor chamber and a corresponding transport buffer to the receiver chamber. Donor samples ([…]) are taken at 0 min and at the end of the experiment. Receiver samples ([…]) are taken at regular intervals such as every 15 min. The study is usually performed in an atmosphere of 5% CO2-95% O2 at 37° C. on a shaking plate (30 rpm).
Transport of [3H]mannitol, a marker for paracellular transport, may be measured, to verify the integrity of the epithelium, using a scintillation counter.
Before and during the experiment the transepithelial electrical resistance (TEER) of the cell monolayers is monitored. The TEER is measured with EVOM™ Epithelial Voltohmmeter connected to Chopsticks.
The transport study was performed as described in General Method D (Example 1). […] […] The permeation (Papp) of a Growth hormone compound in the presence of different FA-aa's was measured and the fold increase (or decrease) compared to the Growth hormone compound alone was calculated.

Series [1] is described as follows: Intra intestinal (mid-jejunum) administration of GH compounds with FA-aa to rats, AUC enhancement. The class given is in vivo, Sprague-Dawley rats. To be noted: SBTI 2% with C16-sarcosinate 30 mg/ml, FIGS. 5, 6 and 7.
Procedure: Each composition is prepared as a 100 pl dosage injected into mid-jejenum of fully anaesthetized overnight fasted Sprague-Dawley rats (n=6, 9 or 18).
At each sampling time 0.25 ml blood is drawn from the tail vein using a 25 G needle. Sampling times are: pre-dose and 0.25, 0.5, 1, 2, 4 and 6 hours after dosing. The blood is sampled into a EDTA coated test tube and stored on ice until centrifugation at 1200×G for 10 min at 4° C. Plasma is transferred to a Micronic tube and stored at −20° C. until analysis.
The limit of detection of the assay was 0.2 nM.
The samples were analysed using a Luminescence Oxygen Channeling Immunoassay (LOCI), a homogenous bead based assay. […] One of the bead reagents is a generic reagent (donor beads) and is coated with streptavidin and contains a photosensitive dye. The second bead reagent (acceptor beads) is coated with an antibody making up the sandwich. […] Illumination of the complex releases singlet oxygen from the donor beads which channels into the acceptor beads and triggers chemiluminescence which is measured in the EnVision plate reader. […]
Series [2] in a line: Pharmacokinetics (T½) of growth hormone compounds in rats after i.v./s.c. single dose. The series is classed as in vivo, Sprague Dawley rats. To be noted: assay of Example 1.C (i.v. or s.c.). How it is done:
The pharmacokinetic of the compounds of the examples is investigated in male Sprague Dawley rats after intravenous (i.v.) and subcutaneous (s.c.) single dose administration.
Test compounds are diluted to a final concentration of 1 mg/mL in a dilution buffer consisting of: Glycine 20 mg/mL, mannitol 2 mg/mL, NaHCO3 2.5 mg/mL, pH adjusted to 8.2.
The test compounds are studied in male Sprague Dawley rats weighing 250 g. The test compounds are administered as a single injection either i.v. in the tail vein or s.c. in the neck with a 25 G needle at a predetermined dose such as of 15 nmol/rat in volume of 0.1 ml (concentration 150 nmol/ml) or 60 nmol/kg body weight. […]
At each sampling time 0.25 ml blood is drawn from the tail vein using a 25 G needle. The blood is sampled into a EDTA coated test tube and stored on ice until centrifugation at 1200×G for 10 min at 4° C. […]
Test compound concentrations are determined by a sandwich ELISA using a guinea pig anti-hGH polyclonal antibody as catcher, and biotinylated hGH binding-protein (soluble part of human GH receptor) as detector. […]
A non-compartmental pharmacokinetic analysis is performed on mean concentration-time profiles of each test compound using WinNonlin Professional (Pharsight Inc., Mountain View, Calif., USA). The pharmacokinetic parameter estimates of terminal half-life (t1/2) and mean residence time (MRT) are calculated.

Consider `CCCCCCCCCCCCCCCC(=O)N[C@@H](CCC(N)=O)C(=O)[O-].[Na+]` [C16-Gln, sodium (2S)-5-amino-5-oxo-2-(hexadecanoylamino)pentanoate], for which, in the series with HT29-MTX (E12) cells, the “effect on permeation / trans-epithelia transport of the growth hormone compounds (in words)” value is on record as “superior effect”, the “effect on GH A1 transport (in words)” value is on record as “biggest effect” and the “effect on the transportation of GH A2 (in words)” value is reported as “biggest effect”. `CCCCCCCCCCCCCCCC(=O)N(C)CC(=O)[O-].[Na+]` [C16-Sarc, sodium 2-[hexadecanoyl(methyl)amino]acetate]: the “effect of protease inhibitor on GH absorption enhancing effect of FA-aa (in words)” value in series [1] is given as “significantly improved by the presence of an enzyme inhibitor”. Consider “wt human growth hormone: human growth hormone identified by SEQ ID NO 1”, for which the “T ½” value in series [2] was in the range of 12 to 14 min. Consider `CCCCCCCCCC(=O)N(C)CC(=O)O` [C10-Sarc, N-decanoyl-L-sarcosine], for which the “Fold increase (Papp of GH A2 + FA-aa relative to GH A2 alone)” value with HT29-MTX (E12) cells came out at 0.7 fold. As for `CCCCCCCCCCCCCCCC(=O)N[C@@H](CCC(=O)[O-])C(=O)[O-].[Na+].[Na+]` [C16-Glu, disodium (2S)-2-(hexadecanoylamino)pentanedioate], in the series on HT29-MTX (E12) cells, the “effect on permeation / trans-epithelia transport of the growth hormone compounds (in words)” value is given as “superior effect”, the “effect on GH A1 transport (in words)” value is on record as “biggest effect” and the “effect on the transportation of GH A2 (in words)” value is “biggest effect”. In the case of `CCCCCCCCCCCC(=O)NCC(=O)O` [C12-Gly, N-dodecanoyl-L-glycine], in the series on HT29-MTX (E12) cells, the “Fold increase (Papp of GH A2 + FA-aa relative to GH A2 alone)” value is on record as 3.4 fold. The same measure, in the same setting: in the case of `CCCCCCCCCCCCCCCC(=O)NC(CCC(=O)O)C(=O)O` [C16-D-Glu] it was 4.1 fold; in that of `CCCCCCCCCCCCCCCC(=O)NC(CC(=O)O)C(=O)O` (stereo not drawn) [C16-(D)-Asp], 1.8 fold.
